Source: patent publication US9107900B2, “Use of dronedarone for the preparation of a medicament for use in the prevention of cardiovascular hospitalization or of morality” (SANOFI, priority 2008, dated 2015)
Structures can show the parent of a compound that is named as a salt.

Tested on: patients having a history of atrial fibrillation or atrial flutter
Experiment: prospective, multinational, multicentre, double-blind clinical study versus placebo: cardiovascular hospitalizations and mortality
Format: in vivo, human
Details: for HR (95% CI): cardiovascular hospitalization and death / decrease of cardiovascular hospitalization and death: vs placebo
Method: The patients had to have a history of atrial fibrillation or flutter and/or could be in normal sinus rhythm or in atrial fibrillation or flutter at inclusion.
The patient recruitment was carried out by taking into account the following inclusion criteria:
• 1) One of the following risk factors had to be present: • age equal to or greater than 70 years, • hypertension (taking antihypertensives of at least two different classes), • diabetes, • history of cerebral stroke (transient ischemic event or completed cerebral stroke) or of systemic embolism, • left atrial diameter greater than or equal to 50 mm measured by echocardiography, • left ventricular ejection fraction less than 40%, measured by two-dimensional echography; or • age equal to or above 70, or even above 75, possibly combined with at least one of the risk factors below: • hypertension (taking antihypertensives of at least two different classes), • diabetes, • history of cerebral stroke (transient ischemic event or completed cerebral stroke) or of systemic embolism, • left atrial diameter greater than or equal to 50 mm measured by echocardiography, • left ventricular ejection fraction less than 40%, measured by two-dimensional echography; • 2) availability of an electrocardiogram carried out during the past 6 months in order to document the presence or the history of atrial fibrillation or flutter; • 3) availability of an electrocardiogram carried out during the past 6 months in order to document the presence or absence of normal sinus rhythm. […] Criteria Related to a Cardiac Condition: • Patients in permanent atrial fibrillation • Patients in unstable hemodynamic condition such as acute pulmonary edema within 12 hours prior to start of study medication; cardiogenic shock; treatment with IV pressor agents; patients on respirator; congestive heart failure of stage NYHA IV within the last 4 weeks; uncorrected, hemodynamically significant primary obstructive valvular disease; hemodynamically significant obstructive cardomyopathy; a cardiac operation or revascularization procedure within 4 weeks preceding randomization • Planned major non-cardiac or cardiac surgery or procedures including surgery for valvular heart disease, coronary artery bypass graft (CABG), percutaneous coronary intervention (PCI), or on urgent cardiac transplantation list • Acute myocarditis or constrictive pericarditis • Bradycardia<50 bpm and/or PR-interval>0.28 sec on the last 12-lead ECG. • Significant sinus node disease (documented pause of 3 seconds or more) or 2nd or 3rd degree atrioventricular block (AV-block) unless treated with a pacemaker. Criteria Related to Concomitant Medications:
Need of a concomitant medication that is prohibited in this trial, including the requirement for Vaughan Williams Class I and III anti-arrhythmic drugs, that would preclude the use of study drug during the planned study period, i.e. patients have to stop others antiarrhythmics such as Vaughan Williams Class I and III anti-arrhythmic drugs, for example amiodarone, flecamide, propafenone, quinidine, disopyramide, dofetilide, solatol.
• Plasma potassium<3.5 mmol/l (as anti-arrhythmic drugs can be arrhythmogenic in patients with hypokalemia, this must be corrected prior to randomization. • A calculated GFR at baseline<10 ml/min using the Cockroft Gault formula (GFR [ml/min]=(140−AGE [years]*WEIGHT [kilograms]*CONSTANT/CREATININE [μmol/L], where CONSTANT is […]).
Furthermore, the concomitant use of grapefruit juice and all potent inhibitors of CYP3A4 such as ketoconazole were prohibited.
Treatment was initiated using tablets containing either the placebo or an amount of dronedarone hydrochloride corresponding to 400 mg of dronedarone at a rate of twice a day with the morning and evening meal and more specifically at a rate of one tablet in the morning during or shortly after breakfast and one tablet in the evening during or shortly after dinner. […]

[1] = III.30 cardiovascular hospitalization, Dronedarone N = 2301
[2] = III.31 hospitalization not due to supraventricular arrhythmia, Dronedarone N = 2301

Compound: CCCCc1oc2ccc(NS(C)(=O)=O)cc2c1C(=O)c1ccc(OCCCN(CCCC)CCCC)cc1 [dronedarone hydrochloride, 2-n-Butyl-3-[4-(3-di-n-butylaminopropoxy)benzoyl]-5-methylsulphonamidobenzofuran]
- HR (95% CI): cardiovascular hospitalization and death (Age ≧75 years (N 1925)): 0.75 (0.65, 0.87)
- decrease of cardiovascular hospitalization and death (Age ≧75 years): 25%
- HR (95% CI): cardiovascular hospitalization and death (Diabetes (N 945)): 0.75 (0.61, 0.91)
- decrease of cardiovascular hospitalization and death (Diabetes): 25%
- HR (95% CI): cardiovascular hospitalization and death (Hypertension (N 3995)): 0.77 (0.69, 0.85)
- decrease of cardiovascular hospitalization and death (Hypertension): 23%
- Any cardiovascular hospitalization, number [1]: 675
- Any cardiovascular hospitalization, percent [1]: (29.3%)
- Atherosclerosis related (if not otherwise specified), number [1]: 11
- Atherosclerosis related (if not otherwise specified), percent [1]: (0.5%)
- Atrial fibrillation and other supraventricular rhythm disorders, number [1]: 296
- Atrial fibrillation and other supraventricular rhythm disorders, percent [1]: (12.9%)
- Blood pressure related (hypotension, hypertension; except syncope), number [1]: 21
- Blood pressure related (hypotension, hypertension; except syncope), percent [1]: (0.9%)
- Cardiovascular infection, number [1]: 4
- Cardiovascular infection, percent [1]: (0.2%)
- Cardiovascular surgery except cardiac transplantation, number [1]: 21
- Cardiovascular surgery except cardiac transplantation, percent [1]: (0.9%)
- Implantation of a pacemaker, ICD or any other cardiac device, number [1]: 32
- Implantation of a pacemaker, ICD or any other cardiac device, percent [1]: (1.4%)
- Major bleeding (requiring two or more units of blood or any intracranial hemorrhage), number [1]: 21
- Major bleeding (requiring two or more units of blood or any intracranial hemorrhage), percent [1]: (0.9%)
- Myocardial infarction or unstable angina, number [1]: 48
- Myocardial infarction or unstable angina, percent [1]: (2.1%)
- Non-fatal cardiac arrest, number [1]: 3
- Non-fatal cardiac arrest, percent [1]: (0.1%)
- Other ventricular arrhythmia, number [1]: 1
- Other ventricular arrhythmia, percent [1]: (<0.1%)
- Pulmonary embolism or deep vein thrombosis, number [1]: 10
- Pulmonary embolism or deep vein thrombosis, percent [1]: (0.4%)
- Stable angina pectoris or atypical chest pain, number [1]: 45
- Stable angina pectoris or atypical chest pain, percent [1]: (2.0%)
- Syncope, number [1]: 21
- Syncope, percent [1]: (0.9%)
- TIA or stroke (except intracranial hemorrhage), number [1]: 28
- TIA or stroke (except intracranial hemorrhage), percent [1]: (1.2%)
- Transcutaneous coronary, cerebrovascular or peripheral procedure, number [1]: 27
- Transcutaneous coronary, cerebrovascular or peripheral procedure, percent [1]: (1.2%)
- Ventricular extrasystoles, number [1]: 1
- Ventricular extrasystoles, percent [1]: (<0.1%)
- Ventricular fibrillation, number [1]: 1
- Ventricular fibrillation, percent [1]: (<0.1%)
- Ventricular tachycardia (non-sustained and sustained), number [1]: 6
- Ventricular tachycardia (non-sustained and sustained), percent [1]: (0.3%)
- Worsening heart failure, including pulmonary edema or dyspnea of cardiac origin, number [1]: 78
- Worsening heart failure, including pulmonary edema or dyspnea of cardiac origin, percent [1]: (3.4%)
- Any non-AF cardiovascular hospitalization, number [2]: 438
- Any non-AF cardiovascular hospitalization, percent [2]: (19.0%)
- Atherosclerosis related (if not otherwise specified), number [2]: 11
- Atherosclerosis related (if not otherwise specified), percent [2]: (0.5%)
- Blood pressure (hypotension, hypertension, not syncope), number [2]: 25
- Blood pressure (hypotension, hypertension, not syncope), percent [2]: (1.1%)
- Cardiovascular infection, number [2]: 4
- Cardiovascular infection, percent [2]: (0.2%)
- Cardiovascular surgery except cardiac transplantation, number [2]: 24
- Cardiovascular surgery except cardiac transplantation, percent [2]: (1.0%)
- Implantation of a pacemaker, ICD or any other cardiac device, number [2]: 46
- Implantation of a pacemaker, ICD or any other cardiac device, percent [2]: (2.0%)
- Major bleeding (requiring two or more units of blood or any intracranial hemorrhage), number [2]: 27
- Major bleeding (requiring two or more units of blood or any intracranial hemorrhage), percent [2]: (1.2%)
- Myocardial infarction or unstable angina, number [2]: 52
- Myocardial infarction or unstable angina, percent [2]: (2.3%)
- Non-fatal cardiac arrest, number [2]: 3
- Non-fatal cardiac arrest, percent [2]: (0.1%)
- Other ventricular arrhythmia, number [2]: 1
- Other ventricular arrhythmia, percent [2]: (<0.1) %
- Pulmonary embolism or deep vein thrombosis, number [2]: 11
- Pulmonary embolism or deep vein thrombosis, percent [2]: (0.5%)
- Stable angina pectoris or atypical chest pain, number [2]: 51
- Stable angina pectoris or atypical chest pain, percent [2]: (2.2%)
- Syncope, number [2]: 23
- Syncope, percent [2]: (1.0%)
- TIA or stroke (except intracranial hemorrhage), number [2]: 32
- TIA or stroke (except intracranial hemorrhage), percent [2]: (1.4%)
- Transcutaneous coronary, cerebrovascular or peripheral procedure, number [2]: 31
- Transcutaneous coronary, cerebrovascular or peripheral procedure, percent [2]: (1.3%)
- Ventricular extrasystoles, number [2]: 1
- Ventricular extrasystoles, percent [2]: (<0.1) %
- Ventricular fibrillation, number [2]: 1
- Ventricular fibrillation, percent [2]: (<0.1) %
- Ventricular tachycardia (non-sustained and sustained), number [2]: 6
- Ventricular tachycardia (non-sustained and sustained), percent [2]: (0.3%)
- Worsening heart failure, including pulmonary edema or dyspnea of cardiac origin, number [2]: 89
- Worsening heart failure, including pulmonary edema or dyspnea of cardiac origin, percent [2]: (3.9%)
- HR (95% CI): cardiovascular hospitalization and death (LVEF <0.40 (N 338)): 0.72 (0.51, 1.00)
- decrease of cardiovascular hospitalization and death (LVEF <0.40): 28%
